Measured values from paper PMC3639963, “A New Class of Small Molecule Inhibitor of BMP Signaling” (PLoS ONE, 2013).

How the values were obtained:
Test in all cases: Nanosyn kinase profiling
Type in all cases: biochemical
Settings in all cases: read-out: Percentage inhibition; for inhibition at 0.1 µM: 0.1 µM inhibitor; for inhibition at 1 µM: 1 µM inhibitor
[1] = target: T1, INSR (Homo sapiens, UniProt P06213)
T1 construct: purchased Nanosyn (enzymatic panel); SGC in-house recombinant human kinases (DSF panel); Invitrogen (ALK1-6)
How it was run: (§1)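 Percent inhibition of each kinase was measured with the inhibitor at 0.1 µM and at 1 µM, as part of a 200-kinase human selectivity panel.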

[2] = target: T2, PI3-K-δ (Homo sapiens, UniProt O00329)
T2 construct: purchased Nanosyn (enzymatic panel); SGC in-house recombinant human kinases (DSF panel); Invitrogen (ALK1-6)
How it was run: as §1

[3] = target: T3, CK1γ2 (Homo sapiens, UniProt P78368)
T3 construct: purchased Nanosyn (enzymatic panel); SGC in-house recombinant human kinases (DSF panel); Invitrogen (ALK1-6)
How it was run: as §1

[4] = target: T4, EPHB3 (Homo sapiens, UniProt P54753)
T4 construct: purchased Nanosyn (enzymatic panel); SGC in-house recombinant human kinases (DSF panel); Invitrogen (ALK1-6)
T4 sequence (P54753 34-998): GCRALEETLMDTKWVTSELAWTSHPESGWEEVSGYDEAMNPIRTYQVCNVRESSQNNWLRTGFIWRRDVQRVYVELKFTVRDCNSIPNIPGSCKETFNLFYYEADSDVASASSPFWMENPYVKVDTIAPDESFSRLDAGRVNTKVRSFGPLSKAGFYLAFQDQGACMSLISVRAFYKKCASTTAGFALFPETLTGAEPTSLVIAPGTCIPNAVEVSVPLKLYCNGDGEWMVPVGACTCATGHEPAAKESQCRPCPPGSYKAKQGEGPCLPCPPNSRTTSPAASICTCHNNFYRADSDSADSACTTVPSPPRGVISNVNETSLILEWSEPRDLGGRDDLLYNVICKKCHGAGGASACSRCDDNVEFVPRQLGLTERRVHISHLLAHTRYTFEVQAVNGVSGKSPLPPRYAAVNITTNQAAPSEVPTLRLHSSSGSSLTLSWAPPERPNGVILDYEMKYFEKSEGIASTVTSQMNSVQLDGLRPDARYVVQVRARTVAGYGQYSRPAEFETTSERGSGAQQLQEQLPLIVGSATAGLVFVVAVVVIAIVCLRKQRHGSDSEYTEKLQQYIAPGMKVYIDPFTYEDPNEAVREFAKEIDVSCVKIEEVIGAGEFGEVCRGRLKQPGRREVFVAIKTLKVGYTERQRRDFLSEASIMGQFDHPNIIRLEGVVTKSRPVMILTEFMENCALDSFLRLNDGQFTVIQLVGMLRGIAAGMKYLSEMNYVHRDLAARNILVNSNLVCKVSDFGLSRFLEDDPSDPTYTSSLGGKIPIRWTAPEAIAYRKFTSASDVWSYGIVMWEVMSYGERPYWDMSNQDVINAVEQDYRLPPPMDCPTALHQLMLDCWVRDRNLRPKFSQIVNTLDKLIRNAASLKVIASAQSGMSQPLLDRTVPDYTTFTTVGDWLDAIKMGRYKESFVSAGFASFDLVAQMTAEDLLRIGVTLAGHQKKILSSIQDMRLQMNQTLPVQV
How it was run: as §1

[5] = target: T5, TEC (Homo sapiens, UniProt P42680)
T5 construct: purchased Nanosyn (enzymatic panel); SGC in-house recombinant human kinases (DSF panel); Invitrogen (ALK1-6)
T5 sequence (P42680 1-631): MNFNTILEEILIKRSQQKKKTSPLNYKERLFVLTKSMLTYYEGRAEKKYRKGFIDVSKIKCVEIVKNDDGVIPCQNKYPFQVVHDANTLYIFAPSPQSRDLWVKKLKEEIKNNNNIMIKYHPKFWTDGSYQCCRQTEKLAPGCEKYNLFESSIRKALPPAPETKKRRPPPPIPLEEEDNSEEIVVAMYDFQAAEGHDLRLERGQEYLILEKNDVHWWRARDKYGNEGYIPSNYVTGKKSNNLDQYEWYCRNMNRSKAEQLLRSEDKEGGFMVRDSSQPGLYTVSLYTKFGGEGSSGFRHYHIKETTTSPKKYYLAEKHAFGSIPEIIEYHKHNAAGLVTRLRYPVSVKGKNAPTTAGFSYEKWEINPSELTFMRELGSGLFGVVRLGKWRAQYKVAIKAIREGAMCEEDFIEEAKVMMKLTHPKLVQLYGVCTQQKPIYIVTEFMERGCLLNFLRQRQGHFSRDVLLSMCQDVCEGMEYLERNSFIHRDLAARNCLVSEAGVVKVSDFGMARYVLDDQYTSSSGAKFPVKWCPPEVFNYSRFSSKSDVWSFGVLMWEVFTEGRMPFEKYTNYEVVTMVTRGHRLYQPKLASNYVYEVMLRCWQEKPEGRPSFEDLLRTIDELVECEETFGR
How it was run: as §1

[6] = target: T6, CDK4/cycD (Homo sapiens, UniProt P11802)
T6 construct: purchased Nanosyn (enzymatic panel); SGC in-house recombinant human kinases (DSF panel); Invitrogen (ALK1-6)
How it was run: as §1

[7] = target: T7, IRR (Homo sapiens, UniProt P14616)
T7 construct: purchased Nanosyn (enzymatic panel); SGC in-house recombinant human kinases (DSF panel); Invitrogen (ALK1-6)
How it was run: as §1

[8] = target: T8, MKNK1 (Homo sapiens, UniProt Q9BUB5)
T8 construct: purchased Nanosyn (enzymatic panel); SGC in-house recombinant human kinases (DSF panel); Invitrogen (ALK1-6)
How it was run: as §1

[9] = target: T9, AMPKα1 (Homo sapiens, UniProt Q13131)
T9 construct: purchased Nanosyn (enzymatic panel); SGC in-house recombinant human kinases (DSF panel); Invitrogen (ALK1-6)
How it was run: as §1

[10] = target: T10, LYNB (Homo sapiens, UniProt P07948)
T10 construct: purchased Nanosyn (enzymatic panel); SGC in-house recombinant human kinases (DSF panel); Invitrogen (ALK1-6)
How it was run: as §1

[11] = target: T11, PI3-K-α (Homo sapiens, UniProt P42336)
T11 construct: purchased Nanosyn (enzymatic panel); SGC in-house recombinant human kinases (DSF panel); Invitrogen (ALK1-6)
How it was run: as §1

[12] = target: T12, RSK4 (Homo sapiens, UniProt Q9UK32)
T12 construct: purchased Nanosyn (enzymatic panel); SGC in-house recombinant human kinases (DSF panel); Invitrogen (ALK1-6)
How it was run: as §1

T1 sequence (P06213 28-1382): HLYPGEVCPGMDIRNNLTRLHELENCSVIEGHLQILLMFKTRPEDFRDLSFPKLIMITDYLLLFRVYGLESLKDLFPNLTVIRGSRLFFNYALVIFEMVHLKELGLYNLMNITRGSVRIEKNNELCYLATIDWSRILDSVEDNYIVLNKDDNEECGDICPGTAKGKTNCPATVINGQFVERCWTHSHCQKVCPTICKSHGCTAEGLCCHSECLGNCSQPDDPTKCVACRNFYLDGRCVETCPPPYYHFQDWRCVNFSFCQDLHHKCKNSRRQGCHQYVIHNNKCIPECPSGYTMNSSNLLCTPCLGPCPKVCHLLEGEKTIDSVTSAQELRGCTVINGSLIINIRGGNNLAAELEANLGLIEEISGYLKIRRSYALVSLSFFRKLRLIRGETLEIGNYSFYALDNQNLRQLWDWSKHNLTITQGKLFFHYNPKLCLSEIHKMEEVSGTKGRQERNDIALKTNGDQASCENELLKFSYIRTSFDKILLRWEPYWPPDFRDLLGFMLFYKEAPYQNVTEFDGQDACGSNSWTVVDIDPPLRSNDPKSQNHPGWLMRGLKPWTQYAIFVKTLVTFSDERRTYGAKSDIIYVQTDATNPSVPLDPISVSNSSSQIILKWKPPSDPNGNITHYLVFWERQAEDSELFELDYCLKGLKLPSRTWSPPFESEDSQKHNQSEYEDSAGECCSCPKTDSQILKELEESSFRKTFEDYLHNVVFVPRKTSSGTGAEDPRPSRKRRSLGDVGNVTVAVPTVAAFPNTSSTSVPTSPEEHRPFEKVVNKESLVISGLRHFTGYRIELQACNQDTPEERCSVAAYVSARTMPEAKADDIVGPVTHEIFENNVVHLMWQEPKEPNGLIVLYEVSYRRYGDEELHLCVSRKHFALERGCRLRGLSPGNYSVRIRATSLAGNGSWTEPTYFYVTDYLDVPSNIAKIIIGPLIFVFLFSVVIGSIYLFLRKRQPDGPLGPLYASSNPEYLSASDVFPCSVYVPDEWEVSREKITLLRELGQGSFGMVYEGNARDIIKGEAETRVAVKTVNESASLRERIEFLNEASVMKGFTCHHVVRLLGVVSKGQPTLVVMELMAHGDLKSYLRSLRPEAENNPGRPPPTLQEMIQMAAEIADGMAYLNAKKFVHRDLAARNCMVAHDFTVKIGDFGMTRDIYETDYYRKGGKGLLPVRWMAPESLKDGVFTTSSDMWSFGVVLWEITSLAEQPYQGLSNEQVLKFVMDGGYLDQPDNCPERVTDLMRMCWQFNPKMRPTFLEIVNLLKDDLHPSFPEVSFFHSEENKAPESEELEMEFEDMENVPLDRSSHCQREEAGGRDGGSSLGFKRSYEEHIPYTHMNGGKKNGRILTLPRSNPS
T7 sequence (P14616 27-1297): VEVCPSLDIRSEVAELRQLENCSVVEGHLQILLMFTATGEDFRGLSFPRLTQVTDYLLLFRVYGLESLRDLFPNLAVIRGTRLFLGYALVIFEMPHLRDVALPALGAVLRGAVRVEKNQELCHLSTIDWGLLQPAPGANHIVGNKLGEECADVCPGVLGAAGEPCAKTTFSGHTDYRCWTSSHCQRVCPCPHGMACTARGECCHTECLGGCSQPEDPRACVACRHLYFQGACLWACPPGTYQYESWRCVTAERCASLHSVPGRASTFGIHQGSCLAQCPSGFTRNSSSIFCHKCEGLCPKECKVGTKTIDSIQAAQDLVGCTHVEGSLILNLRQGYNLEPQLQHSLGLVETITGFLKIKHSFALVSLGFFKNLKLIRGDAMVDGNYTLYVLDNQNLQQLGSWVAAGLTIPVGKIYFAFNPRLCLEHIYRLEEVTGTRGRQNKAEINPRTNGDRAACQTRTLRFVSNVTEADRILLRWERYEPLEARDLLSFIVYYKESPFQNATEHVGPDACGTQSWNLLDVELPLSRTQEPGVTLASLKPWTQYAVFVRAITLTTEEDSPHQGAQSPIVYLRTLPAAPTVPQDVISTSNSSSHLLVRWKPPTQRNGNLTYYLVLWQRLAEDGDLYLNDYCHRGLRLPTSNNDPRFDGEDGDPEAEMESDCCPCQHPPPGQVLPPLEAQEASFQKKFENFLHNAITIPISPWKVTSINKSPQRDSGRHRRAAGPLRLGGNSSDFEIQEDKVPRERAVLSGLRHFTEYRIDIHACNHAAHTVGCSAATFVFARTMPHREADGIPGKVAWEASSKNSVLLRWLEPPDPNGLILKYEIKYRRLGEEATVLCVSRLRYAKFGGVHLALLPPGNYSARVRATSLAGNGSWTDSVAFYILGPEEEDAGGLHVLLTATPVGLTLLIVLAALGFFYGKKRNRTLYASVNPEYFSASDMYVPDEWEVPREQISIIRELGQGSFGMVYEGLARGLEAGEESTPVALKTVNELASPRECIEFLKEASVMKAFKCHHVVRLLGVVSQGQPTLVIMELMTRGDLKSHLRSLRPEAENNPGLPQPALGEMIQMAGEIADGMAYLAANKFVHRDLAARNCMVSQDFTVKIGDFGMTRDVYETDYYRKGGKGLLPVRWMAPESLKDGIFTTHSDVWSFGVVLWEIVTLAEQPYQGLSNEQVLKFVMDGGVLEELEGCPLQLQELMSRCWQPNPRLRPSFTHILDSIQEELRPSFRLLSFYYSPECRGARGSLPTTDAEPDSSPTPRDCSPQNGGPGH
T9 sequence (Q13131 whole entry): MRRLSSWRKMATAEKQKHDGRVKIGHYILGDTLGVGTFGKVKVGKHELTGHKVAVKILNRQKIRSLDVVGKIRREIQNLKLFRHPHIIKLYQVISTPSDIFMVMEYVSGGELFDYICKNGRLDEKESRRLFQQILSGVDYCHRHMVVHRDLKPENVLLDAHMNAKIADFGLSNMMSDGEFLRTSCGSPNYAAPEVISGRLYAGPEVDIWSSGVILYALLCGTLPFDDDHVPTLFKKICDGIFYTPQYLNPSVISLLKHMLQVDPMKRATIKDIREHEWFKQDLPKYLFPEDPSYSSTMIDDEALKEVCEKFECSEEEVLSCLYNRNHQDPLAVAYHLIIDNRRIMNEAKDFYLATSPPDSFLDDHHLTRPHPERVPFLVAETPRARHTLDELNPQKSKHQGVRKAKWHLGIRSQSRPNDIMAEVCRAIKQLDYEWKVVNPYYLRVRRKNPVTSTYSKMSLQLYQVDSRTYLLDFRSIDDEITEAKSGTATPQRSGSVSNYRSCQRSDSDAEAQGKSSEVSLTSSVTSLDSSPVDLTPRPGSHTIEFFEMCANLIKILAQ
T9 sequence (Q9Y478 whole entry partner): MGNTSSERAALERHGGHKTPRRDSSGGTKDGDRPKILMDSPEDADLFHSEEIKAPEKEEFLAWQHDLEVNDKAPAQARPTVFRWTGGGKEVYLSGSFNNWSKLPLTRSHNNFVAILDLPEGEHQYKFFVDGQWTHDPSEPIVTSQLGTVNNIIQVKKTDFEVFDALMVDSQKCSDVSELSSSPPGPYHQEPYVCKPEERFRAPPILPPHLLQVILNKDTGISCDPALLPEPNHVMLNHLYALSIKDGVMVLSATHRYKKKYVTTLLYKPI
T9 sequence (P54619 whole entry partner): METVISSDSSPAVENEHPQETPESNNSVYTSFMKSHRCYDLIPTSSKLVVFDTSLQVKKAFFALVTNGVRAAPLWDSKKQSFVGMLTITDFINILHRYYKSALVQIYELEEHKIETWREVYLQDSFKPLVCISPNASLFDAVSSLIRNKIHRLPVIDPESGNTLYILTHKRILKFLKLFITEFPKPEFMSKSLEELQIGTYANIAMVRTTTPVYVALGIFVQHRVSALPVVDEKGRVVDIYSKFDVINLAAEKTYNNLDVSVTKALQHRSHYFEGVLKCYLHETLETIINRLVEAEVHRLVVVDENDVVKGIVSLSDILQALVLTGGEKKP
T12 sequence (Q9UK32 whole entry): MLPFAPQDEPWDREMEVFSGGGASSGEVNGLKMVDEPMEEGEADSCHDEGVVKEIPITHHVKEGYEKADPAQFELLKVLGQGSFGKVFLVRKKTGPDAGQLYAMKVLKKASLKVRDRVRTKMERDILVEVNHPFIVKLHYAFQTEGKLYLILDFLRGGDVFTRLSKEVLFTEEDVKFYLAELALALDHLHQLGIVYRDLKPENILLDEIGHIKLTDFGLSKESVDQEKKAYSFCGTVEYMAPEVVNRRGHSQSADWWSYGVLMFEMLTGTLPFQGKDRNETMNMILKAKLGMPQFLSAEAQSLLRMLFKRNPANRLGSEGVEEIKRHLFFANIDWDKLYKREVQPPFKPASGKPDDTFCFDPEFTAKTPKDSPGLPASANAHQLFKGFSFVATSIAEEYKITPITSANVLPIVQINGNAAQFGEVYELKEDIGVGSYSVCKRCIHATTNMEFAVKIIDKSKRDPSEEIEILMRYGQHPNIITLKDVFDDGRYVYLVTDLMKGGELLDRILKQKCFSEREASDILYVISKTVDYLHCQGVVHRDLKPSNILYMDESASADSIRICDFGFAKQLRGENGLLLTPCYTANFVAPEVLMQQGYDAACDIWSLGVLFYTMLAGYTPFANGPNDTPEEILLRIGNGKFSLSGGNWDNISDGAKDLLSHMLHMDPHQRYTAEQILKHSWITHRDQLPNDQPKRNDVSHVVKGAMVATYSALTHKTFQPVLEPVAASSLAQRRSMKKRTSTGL
T10 sequence (P07948 1-491 isoform P07948-2): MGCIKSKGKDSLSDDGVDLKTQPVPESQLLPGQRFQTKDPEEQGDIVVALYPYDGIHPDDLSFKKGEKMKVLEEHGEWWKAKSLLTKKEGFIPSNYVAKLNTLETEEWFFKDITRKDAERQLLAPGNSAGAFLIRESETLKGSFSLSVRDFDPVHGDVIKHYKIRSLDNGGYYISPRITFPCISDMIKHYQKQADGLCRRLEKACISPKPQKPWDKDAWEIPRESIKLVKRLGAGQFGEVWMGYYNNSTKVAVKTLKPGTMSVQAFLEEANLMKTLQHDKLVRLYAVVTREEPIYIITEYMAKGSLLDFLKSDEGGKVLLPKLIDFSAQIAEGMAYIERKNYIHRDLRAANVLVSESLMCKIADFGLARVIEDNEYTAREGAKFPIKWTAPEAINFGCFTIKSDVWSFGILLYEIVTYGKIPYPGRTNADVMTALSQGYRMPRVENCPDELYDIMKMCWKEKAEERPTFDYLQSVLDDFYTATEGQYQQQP

Row | Structure (SMILES) | inhibition at 0.1 µM [1] [%] | inhibition at 1 µM [1] [%] | inhibition at 0.1 µM [2] [%] | inhibition at 1 µM [2] [%] | inhibition at 0.1 µM [3] [%] | inhibition at 1 µM [3] [%] | inhibition at 0.1 µM [4] [%] | inhibition at 1 µM [4] [%] | inhibition at 0.1 µM [5] [%] | inhibition at 1 µM [5] [%] | inhibition at 0.1 µM [6] [%] | inhibition at 1 µM [6] [%] | inhibition at 0.1 µM [7] [%] | inhibition at 1 µM [7] [%] | inhibition at 0.1 µM [8] [%] | inhibition at 1 µM [8] [%] | inhibition at 0.1 µM [9] [%] | inhibition at 1 µM [9] [%] | inhibition at 0.1 µM [10] [%] | inhibition at 1 µM [10] [%] | further results
1 | COc1cc(-c2cc(-c3cccc(O)c3)cnc2N)cc(OC)c1OC [K02288, 3-[6-amino-5-(3,4,5-trimethoxy-phenyl)-pyridin-3-yl]-phenol] | -4 | 0.7 | 0.8 | 2.5 | -1 | 5.5 | -2 | -1 | 0.3 | 14 | 0.1 | 1.3 | -1 | -1 | 0.7 | 1.3 | -1 | 0 | 6 | 43 | inhibition at 0.1 µM [11]: 2.6%; inhibition at 1 µM [11]: 2%; inhibition at 0.1 µM [12]: 0.1%; inhibition at 1 µM [12]: 1%
2 | c1ccc2c(-c3cnn4cc(-c5ccc(N6CCNCC6)cc5)cnc34)ccnc2c1 [LDN-193189] | 3.8 | 4.5 | -1 | 10 | 1.6 | 3.9 | 5.6 | 4.3 | 1.8 | 5.5 | 0.8 | 8.3 | 1.9 | 2.2 | 7.1 | 37 | 5.2 | 23 | 7.4 | 34 | inhibition at 0.1 µM [11]: 2.1%; inhibition at 1 µM [11]: 1.5%; inhibition at 0.1 µM [12]: 0.8%; inhibition at 1 µM [12]: 3.8%
